Experimental findings from publication doi:10.1101/2023.03.24.534094v2 (biorxiv, 2023) are described below.

Common to all, as to test: biochemical
One assay has as its target T1, MST2 (Homo sapiens, UniProt Q13188).
T1 sequence (Q13188 1-491): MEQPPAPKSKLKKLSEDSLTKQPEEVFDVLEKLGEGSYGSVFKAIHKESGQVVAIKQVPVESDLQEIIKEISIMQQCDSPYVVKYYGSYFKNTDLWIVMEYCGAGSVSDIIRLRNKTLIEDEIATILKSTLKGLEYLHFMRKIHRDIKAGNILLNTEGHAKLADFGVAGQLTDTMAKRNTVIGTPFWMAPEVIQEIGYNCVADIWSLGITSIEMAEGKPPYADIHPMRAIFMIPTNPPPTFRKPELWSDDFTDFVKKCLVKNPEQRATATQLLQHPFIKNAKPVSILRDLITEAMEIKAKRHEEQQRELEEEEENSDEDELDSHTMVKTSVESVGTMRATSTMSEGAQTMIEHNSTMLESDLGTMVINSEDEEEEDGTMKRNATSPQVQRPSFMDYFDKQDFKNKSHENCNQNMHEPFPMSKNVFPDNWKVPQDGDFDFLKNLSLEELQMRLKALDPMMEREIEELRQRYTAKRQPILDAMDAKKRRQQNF
The note with it: 10 µM; binder.

Another assay concerns the target T2, MST1 (Homo sapiens, UniProt Q13043).
T2 sequence (Q13043 1-487): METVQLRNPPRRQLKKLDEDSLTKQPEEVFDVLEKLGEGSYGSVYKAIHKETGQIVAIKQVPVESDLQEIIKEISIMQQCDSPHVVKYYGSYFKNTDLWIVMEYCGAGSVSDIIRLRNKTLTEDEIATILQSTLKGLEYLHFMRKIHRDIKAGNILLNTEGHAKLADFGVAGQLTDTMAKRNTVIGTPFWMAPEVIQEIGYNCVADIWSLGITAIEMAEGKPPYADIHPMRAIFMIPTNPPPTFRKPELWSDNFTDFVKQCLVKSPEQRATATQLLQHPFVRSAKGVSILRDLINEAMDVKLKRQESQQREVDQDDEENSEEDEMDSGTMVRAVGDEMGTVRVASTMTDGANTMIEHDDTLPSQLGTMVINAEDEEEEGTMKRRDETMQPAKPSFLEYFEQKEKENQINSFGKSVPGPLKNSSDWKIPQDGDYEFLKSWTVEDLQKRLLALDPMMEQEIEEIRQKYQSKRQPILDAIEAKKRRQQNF

The next assay has as its target MST4 (Homo sapiens, UniProt Q9P289). The note with it: 10 µM; binder.

Chain of MST4 (Q9P289 whole entry): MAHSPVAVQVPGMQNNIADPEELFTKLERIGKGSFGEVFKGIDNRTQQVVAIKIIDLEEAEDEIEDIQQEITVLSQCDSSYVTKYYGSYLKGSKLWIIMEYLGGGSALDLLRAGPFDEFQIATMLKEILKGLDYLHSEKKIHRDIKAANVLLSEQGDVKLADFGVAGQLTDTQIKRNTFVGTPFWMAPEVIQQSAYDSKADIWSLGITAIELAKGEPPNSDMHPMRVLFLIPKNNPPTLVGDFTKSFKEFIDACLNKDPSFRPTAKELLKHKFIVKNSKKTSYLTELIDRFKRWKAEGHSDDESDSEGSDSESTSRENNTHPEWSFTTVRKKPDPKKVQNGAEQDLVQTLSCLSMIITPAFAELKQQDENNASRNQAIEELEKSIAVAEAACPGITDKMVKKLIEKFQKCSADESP

With `CNc1ncc2cc(-c3ccc(-c4ncccc4F)cc3Cl)c(=O)n(C[C@H]3OC[C@H](N)CO3)c2n1` [compound 1, MRIA9], on MST2, the “dTm MST2” value is 2.5 °C. On MST1 (10 µM, binder), the “dTm MST1” value turned out to be 1.8 °C. Further, the “dTm MST4” value on MST4 worked out at 2.7 °C.

In the case of `CN[C@@H]1C[C@H]2O[C@@](C)([C@@H]1OC)n1c3ccccc3c3c4c(c5c6ccccc6n2c5c31)C(=O)NC4` [Staurosporine], on MST1 (read-out: dTm MST1), the ΔTm at 10 µM was 13.9 °C.
